# Key:
# [1] = tested on: metastatic basal cell cancer; settings: for response to earlier therapy: brain, bone and liver metastases, therapies before nivolumab
# Excerpt: The interaction of this ligand (PD-L1) with the programmed death receptor (PD-1), expressed on T and B cells, alters the function of these cells leading to inhibition of autoimmunity and anti-tumor immunity.
# The patient was started on nivolumab (OPDIVO®, anti-PD-1 antibody).
# [2] = Tolerability in type 2 diabetes patient (Example 6); assay type: in vivo, human
# Excerpt: A person over-weight man (Body Mass Index=37.5, clinical obesity class 2) with a 5-year history of type 2 diabetes consults a Diabetes Specialty Clinic in Paris (France) for recent weight gain, foot pain, and persistent nocturia. At the time of their initial appointment, the patient was taking simvastatin (ZOCOR®) for a hyperlipidemia and a “pancreatic elixir” in an attempt to improve their diabetes control. […] The laboratory tests performed the same day confirms the uncontrolled type 2 diabetes (evaluated by a level of glycosylated hemoglobin=8.3%-normal<7%), a normo-lipidemia, and an elevated urine micro-albumin level. The physician ordered a urine metabolite profiling. The post-analysis review of the results highlighted the upregulation of the IL-1 (interleukin 1), TNF (Tumor Necrosis Factor), and mTOR (Mammalian Target of Rapamycin) signaling pathways.
# The association of IL-1 and TNF inhibitors together is not considered by the system, as it increases the risk of serious infections. […] All of these drugs are approved by the ANSM (French Agency for Medicines and Medical Products Security).
# [3] = tested on: hepatocellular carcinoma (HCC) with CDKN2A and CTNNB1 mutations; assay: Clinical outcome of hepatocellular carcinoma patient (Example 1); assay type: in vivo, human; settings: metastatic HCC after chemoembolization, before molecular profiling
# Excerpt: Six months later, the physician logs in to the system via the web-interface and completes the physician's feedback survey regarding the regimen prescribed to their patient and the outcome observed. […] The entry corresponding to this observation was created in the clinical outcome database and will then be used in order to optimize similar cases.
compound,measurement,setting,value
N.N.[Cl][Pt][Cl] [cisplatin],response to earlier therapy,[1],short-lived response
COc1ccc(Cl)cc1C(=O)NCCc1ccc(S(=O)(=O)NC(=O)NC2CCCCC2)cc1 [glibenclamide],adverse effects that led to stopping the drug,"[2]; human, in vivo","dizziness, sweating, and agitation"
CC(=O)O[C@H]1C(=O)[C@@]2(C)[C@H]([C@H](OC(=O)c3ccccc3)[C@]3(O)C[C@H](OC(=O)[C@H](O)[C@@H](NC(=O)c4ccccc4)c4ccccc4)C(C)=C1C3(C)C)[C@]1(OC(C)=O)CO[C@@H]1C[C@@H]2O [paclitaxel],response to earlier therapy,[1],short-lived response
CCC(C)(C)C(=O)O[C@H]1C[C@@H](C)C=C2C=C[C@H](C)[C@H](CC[C@@H]3C[C@@H](O)CC(=O)O3)[C@H]21 [simvastatin],tolerability,[2]; taken for hyperlipidemia,well-tolerated
Cc1c(C(=O)Nc2ccc(N3C[C@@H](C)O[C@@H](C)C3)nc2)cccc1-c1ccc(OC(F)(F)F)cc1 [sonidegib],response to earlier therapy,[1],non-responsive
CNC(=O)c1cc(Oc2ccc(NC(=O)Nc3ccc(Cl)c(C(F)(F)F)c3)cc2)ccn1 [sorafenib],disease course under treatment,[3],continued to progress
CS(=O)(=O)c1ccc(C(=O)Nc2ccc(Cl)c(-c3ccccn3)c2)c(Cl)c1 [vismodegib],response to earlier therapy,[1],non-responsive
nivolumab: anti-PD-1 antibody,response on scans,"[1]; after two months, PD-L1 (CD274) amplification",remarkable partial remission
same,toxicity,"[1]; human, in vivo",no toxicity

# Source: patent US11434534B2, “Optimizing therapeutic options in personalized medicine” (CureMatch, Inc., priority 2016, dated 2022)
